From PubChem BioAssay AID248 (DTP/NCI, 2004)
Values joined by “and” are separate entries in the source; they are usually repeats but may differ in a detail not shown here. Equal values may be shown once. Toxic doses and inconclusive results are not listed. Cut-off read from the data, not from the text of the source: active = T/C of 150% or more; inactive = T/C below 125%.

Tested on: L1210 leukemia ip in BDF1 mice, survival T/C
Test: NCI In Vivo Anticancer Drug Screen. Data for tumor model L1210 Leukemia (intraperitoneal) in B6D2F1 (BDF1) mice
Details: endpoint: mean survival time, higher = longer survival
Method in brief: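 Value reflects the ratio of survival in compound-treated mice to survival in vehicle-treated controls, with both groups carrying the same transplanted tumor.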

[1] = dose: 100.0 mg/kg/injection, schedule: Q04DX003 (ip), vehicle: saline with Tween-80
[2] = dose: 100.0 mg/kg/injection, schedule: Q01DX009 (ip), vehicle: Klucel (hydroxypropylcellulose) (HPC)
[3] = dose: 200.0 mg/kg/injection, schedule: Q01DX009 (ip), vehicle: Klucel (hydroxypropylcellulose) (HPC)
[4] = dose: 400.0 mg/kg/injection, schedule: Q01DX009 (ip), vehicle: Klucel (hydroxypropylcellulose) (HPC)
[5] = dose: 100.0 mg/kg/injection, schedule: Q04DX003 (ip), vehicle: Klucel (hydroxypropylcellulose) (HPC)
[6] = dose: 200.0 mg/kg/injection, schedule: Q04DX003 (ip), vehicle: Klucel (hydroxypropylcellulose) (HPC)
[7] = dose: 400.0 mg/kg/injection, schedule: Q04DX003 (ip), vehicle: Klucel (hydroxypropylcellulose) (HPC)
[8] = dose: 75.0 mg/kg/injection, schedule: Q01DX001 (ip), vehicle: carboxymethylcellulose (CMC)
[9] = dose: 150.0 mg/kg/injection, schedule: Q01DX001 (ip), vehicle: carboxymethylcellulose (CMC)
[10] = dose: 300.0 mg/kg/injection, schedule: Q01DX001 (ip), vehicle: carboxymethylcellulose (CMC)
[11] = dose: 100.0 mg/kg/injection, schedule: Q04DX002 (ip), vehicle: saline with Tween-80
[12] = dose: 200.0 mg/kg/injection, schedule: Q04DX002 (ip), vehicle: saline with Tween-80
[13] = dose: 400.0 mg/kg/injection, schedule: Q04DX002 (ip), vehicle: saline with Tween-80

Measured: T/C

C/C(=C\C(=O)O)Cc1ccccc1 (tested in a mixture with another compound)
inactive: dose: 50.0 mg/kg/injection, schedule: Q04DX003 (ip), vehicle: other 106 % of control | dose: 100.0 mg/kg/injection, schedule: Q04DX003 (ip), vehicle: other 115 % of control | dose: 200.0 mg/kg/injection, schedule: Q04DX003 (ip), vehicle: other 114 % of control | dose: 400.0 mg/kg/injection, schedule: Q04DX003 (ip), vehicle: other 103 % of control

NC(=Nc1ccc([N+](=O)[O-])cc1)c1ccccc1
inactive: [1] 98 % of control | dose: 200.0 mg/kg/injection, schedule: Q04DX003 (ip), vehicle: saline with Tween-80 102 % of control | dose: 400.0 mg/kg/injection, schedule: Q04DX003 (ip), vehicle: saline with Tween-80 100 % of control

COc1ccc(OC)c(NC(=O)Nc2ccc([N+](=O)[O-])cc2OC)c1
inactive: [2] 96 % of control | [3] 93 % of control | [4] 94 % of control

CCCCCCCCCCCCCCCCCCNC(=S)N/N=C/c1ccccc1[N+](=O)[O-]
inactive: dose: 111.0 mg/kg/injection, schedule: Q01DX Z (ip), vehicle: methylcellulose (MC) 90 % of control | dose: 166.0 mg/kg/injection, schedule: Q01DX Z (ip), vehicle: methylcellulose (MC) 86 % of control

CN(C)CCOC(=O)c1cccc(CCBr)c1
inactive: dose: 87.5 mg/kg/injection, schedule: Q01DX009 (ip), vehicle: saline 103 % of control | dose: 175.0 mg/kg/injection, schedule: Q01DX009 (ip), vehicle: saline 92 % of control | dose: 350.0 mg/kg/injection, schedule: Q01DX009 (ip), vehicle: saline 104 % of control

CN(C)NC(=O)C(c1ccccc1)c1ccccc1
inactive: dose: 25.0 mg/kg/injection, schedule: Q04DX003 (ip), vehicle: saline with Tween-80 100 % of control | dose: 50.0 mg/kg/injection, schedule: Q04DX003 (ip), vehicle: saline with Tween-80 97 % of control | [1] 92 % of control and 97 % of control

Cc1cc(N(C)c2ccccc2)nc(N)n1
inactive: dose: 25.0 mg/kg/injection, schedule: Q01DX Z (ip), vehicle: methylcellulose (MC) 96 % of control

O=C(/C=C/c1ccccc1)NC(=S)Nc1ccc(C(=O)O)cc1
inactive: [2] 92 % of control | [5] 101 % of control | [3] 101 % of control | [6] 100 % of control | [4] 94 % of control | [7] 108 % of control

Cc1ccc(CCOC(=O)c2cc([N+](=O)[O-])cc([N+](=O)[O-])c2)cc1
inactive: [8] 94 % of control | [9] 94 % of control | [10] 90 % of control

CCCCCCNS(=O)(=O)c1ccc([N+](=O)[O-])cc1
inactive: [5] 100 % of control | [6] 100 % of control | [7] 93 % of control

CCC1CCCCC1(O)CC (stereo not drawn)
inactive: dose: 100.0 mg/kg/injection, schedule: Q01DX009 (ip), vehicle: saline 96 % of control | dose: 200.0 mg/kg/injection, schedule: Q01DX009 (ip), vehicle: saline 98 % of control

COC(=O)/C=C(\C)Nc1cccc([N+](=O)[O-])c1
inactive: dose: 100.0 mg/kg/injection, schedule: Q01DX001 (ip), vehicle: other 94 % of control

Cc1ccc(S(=O)(=O)N2CN(S(=O)(=O)c3ccc(C)cc3)CN(S(=O)(=O)c3ccc(C)cc3)C2)cc1
inactive: [11] 94 % of control | [12] 91 % of control | [13] 91 % of control

Cc1cccc(OCCOC(=O)Nc2ccccc2F)c1
inactive: [2] 103 % of control | [3] 93 % of control | [4] 106 % of control

[O-]c1c[n+](C23CCC(c4ccccc42)c2ccccc23)no1
inactive: [2] 102 % of control | [5] 100 % of control | [3] 102 % of control | [6] 103 % of control | [4] 95 % of control | [7] 100 % of control

COc1ccc(CN2CCCN(Cc3ccc(OC)cc3)C2c2ccc(OC)cc2)cc1
inactive: dose: 100.0 mg/kg/injection, schedule: Q01DX009 (ip), vehicle: saline with Tween-80 92 % of control | dose: 100.0 mg/kg/injection, schedule: Q04DX003 (ip), vehicle: acetone 94 % of control | dose: 200.0 mg/kg/injection, schedule: Q01DX009 (ip), vehicle: saline with Tween-80 98 % of control and 87 % of control | dose: 200.0 mg/kg/injection, schedule: Q04DX003 (ip), vehicle: acetone 97 % of control | dose: 400.0 mg/kg/injection, schedule: Q01DX009 (ip), vehicle: saline with Tween-80 96 % of control | dose: 400.0 mg/kg/injection, schedule: Q04DX003 (ip), vehicle: acetone 95 % of control

CCOC(=O)C1C2CCC/C(=N\NS(=O)(=O)c3ccc(C)cc3)C21 (stereo not drawn)
inactive: dose: 100.0 mg/kg/injection, schedule: Q04DX002 (ip), vehicle: Klucel (hydroxypropylcellulose) (HPC) 104 % of control | dose: 200.0 mg/kg/injection, schedule: Q04DX002 (ip), vehicle: Klucel (hydroxypropylcellulose) (HPC) 100 % of control | dose: 400.0 mg/kg/injection, schedule: Q04DX002 (ip), vehicle: Klucel (hydroxypropylcellulose) (HPC) 96 % of control

CC1CN1P(=S)(Oc1ccccc1)N1CC1C (stereo not drawn)
inactive: dose: 7.0 mg/kg/injection, schedule: Q01DX015 (ip), vehicle: carboxymethylcellulose (CMC) 94 % of control | dose: 13.0 mg/kg/injection, schedule: Q01DX015 (ip), vehicle: carboxymethylcellulose (CMC) 98 % of control | dose: 25.0 mg/kg/injection, schedule: Q01DX015 (ip), vehicle: carboxymethylcellulose (CMC) 97 % of control | dose: 50.0 mg/kg/injection, schedule: Q01DX015 (ip), vehicle: carboxymethylcellulose (CMC) 91 % of control | dose: 100.0 mg/kg/injection, schedule: Q01DX001 (ip), vehicle: saline 105 % of control | dose: 100.0 mg/kg/injection, schedule: Q01DX015 (ip), vehicle: carboxymethylcellulose (CMC) 103 % of control | dose: 200.0 mg/kg/injection, schedule: Q01DX001 (ip), vehicle: saline 102 % of control | dose: 200.0 mg/kg/injection, schedule: Q01DX015 (ip), vehicle: saline 95 % of control | dose: 400.0 mg/kg/injection, schedule: Q01DX001 (ip), vehicle: saline 100 % of control | dose: 400.0 mg/kg/injection, schedule: Q01DX015 (ip), vehicle: saline 91 % of control | dose: 800.0 mg/kg/injection, schedule: Q01DX001 (ip), vehicle: saline 95 % of control | dose: 1600.0 mg/kg/injection, schedule: Q01DX001 (ip), vehicle: saline 103 % of control

CC(C)/C=N/NP(Br)(c1ccccc1)(c1ccccc1)c1ccccc1
inactive: [8] 93 % of control | [9] 95 % of control | [10] 102 % of control

O=C1c2cccc3cc([N+](=O)[O-])cc(c23)C(=O)N1C(Cc1ccccc1)c1ccccc1 (stereo not drawn)
inactive: [11] 103 % of control | [12] 95 % of control | [13] 103 % of control

COC(=O)C(CCC(=O)O)NC(=O)C(F)(F)F (stereo not drawn)
inactive: dose: 100.0 mg/kg/injection, schedule: Q01DX001 (ip), vehicle: Klucel (hydroxypropylcellulose) (HPC) 89 % of control | dose: 200.0 mg/kg/injection, schedule: Q01DX001 (ip), vehicle: Klucel (hydroxypropylcellulose) (HPC) 97 % of control | dose: 400.0 mg/kg/injection, schedule: Q01DX001 (ip), vehicle: Klucel (hydroxypropylcellulose) (HPC) 89 % of control

C=CCN1C2C=C(c3ccccc3)CC1CCC2 (stereo not drawn)
inactive: dose: 12.5 mg/kg/injection, schedule: Q04DX003 (ip), vehicle: Klucel (hydroxypropylcellulose) (HPC) 100 % of control | dose: 25.0 mg/kg/injection, schedule: Q04DX003 (ip), vehicle: Klucel (hydroxypropylcellulose) (HPC) 96 % of control
